{"source": "patent US10858344B2", "about": "“Hydantoin containing deoxyuridine triphosphatase inhibitors” (CV6 Therapeutics (NI) Limited, priority 2016, dated 2020)", "target": "recombinant human deoxyuridine nucleotidohydrolase (dUTPase) (Homo sapiens (Human), UniProt P33316)", "sequence (P33316 other isoform, or with tags, fused parts or gaps)": "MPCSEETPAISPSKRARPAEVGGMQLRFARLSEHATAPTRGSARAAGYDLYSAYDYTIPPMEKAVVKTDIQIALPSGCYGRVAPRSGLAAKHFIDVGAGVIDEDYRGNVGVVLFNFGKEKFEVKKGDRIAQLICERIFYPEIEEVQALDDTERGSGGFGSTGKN", "test": "fluorescence-based dUTPase inhibition assay", "format": "biochemical", "conditions": "for % relative inhibition vs. positive control: mean over three concentrations, typically 100, 50 and 25 μmol/L, compared to in-run positive control", "excerpt": "Recombinant human deoxyuridine nucleotidohydrolase (dUTPase) is expressed and purified as described in Ladner R D, Carr S A, Huddleston M J, McNulty D E, Caradonna S J. J Biol Chem. 1996 Mar. 29; 271(13):7752-7. All drugs stocks are aliquoted and diluted as appropriate prior to use. The oligonucelotide primer, templates and fluorophore- and quencher-labeled detection probes are synthesized by Integrated DNA Technologies (Coralville, Iowa), subjected to polyacrylamide gel electrophoresis purification and reconstituted in Omnipur sterile nuclease-free water (EMD Chemicals USA, Gibbstown N.J.) at a stock concentration of 100 μmol/L. The two non-emissive (dark) quenching molecules incorporated into the detection probes include the Iowa black fluorescein quencher (IBFQ; absorption max 531 nm) and ZEN (non-abbreviation; absorption max 532 nm). The fluorescent label utilized is 6-FAM (5′-carboxyfluorescein; excitation max.=494 nm, emission max.=520 nm). Probes are further diluted to a working stock of 10 μmol/L and aliquoted to avoid repeated freeze/thaw cycles. AmpliTaq Gold DNA Polymerase, GeneAmp 10×PCR Buffer 2, MgCl2 and MicroAmp Optical 96-well Reaction Plates are purchased from Applied Biosystems (Carlsbad, Calif.). dNTPs are purchased individually at stock concentrations of 100 mmol/L from New England Biolabs at HPLC-certified >99% purity (Ipswich, Mass.).\nReaction mixtures contained primer, probe and template at an equimolar final concentration of 0.4 μmol/L. Magnesium chloride (MgCl2) is included at a final concentration of 2 mmol/L. Non-limiting dNTPs are included in the reaction mix in excess at a final concentration of 100 μmol/L (dUTP/dTTP is excluded). AmpliTaq Gold DNA polymerase is added at 0.875 U/reaction, 2.5 μl of 10×PCR buffer 2 added and nuclease-free ddH2O added to a final reaction volume of 25 μl. For dUTP inhibition analysis, the volume of ddH2O is further modified to accommodate an additional 1 μl of dUTPase (10 ng/μl) and 1 μl of inhibitor or DMSO control. Thermal profiling and fluorescence detection is performed using a customized thermal program on board a Roche Lightcycler LC480 Instrument II. For analysis of dNTPs, the thermal profile consisted of an 8 min 37° C. step followed by a 10 min 95° C. step to ‘hot-start’ the Taq polymerase and a primer extension time of up to 30 min at 60° C. Raw fluorescence spectra for 6-FAM is measured at specified time intervals to follow assay progression on board a Roche LightCycler 480 Software Version 1.5 and exported and analyzed in Microsoft Excel (Microsoft, Redmond Wash.) and Prism (GraphPad Software, La Jolla Calif.). Fluorescence values for blank reactions (limiting dNTP omitted) are subtracted to give normalized fluorescence units (NFU) to account for background fluorescence.\nTest compounds are screened in a fluorescence-based assay. The assay employs a DNA polymerase-based approach utilizing an oligonucleotide template with 3 distinct regions: a 3′ primer binding region, a mid-template dUTP/thymidine triphosphate (TTP) detection region and a 5′ 6-[…] (FAM)-labeled probe binding region that incorporates a black hole quenching moiety. During the reaction, the probe and primer hybridize to the oligonucleotide template to form the template:primer:probe complex. When Taq polymerase binds to the primer in the TPP complex and dUTP is present, successful extension of the nascent strand occurs and the inherent 5′ to 3′ exonuclease activity of Taq polymerase cleaves and displaces the 6-FAM-labeled probe in a 5′ to 3′ direction, releasing the 6-FAM fluorophore from its proximity to the three quenchers. This displacement effectively disrupts the Förster resonance energy transfer (FRET) and the resulting fluorescence detected upon excitation is directly proportional to the amount of the dUTP available in the assay for incorporation. […]", "data": [{"smiles": "CC(C)COc1cc(C2(NS(=O)(=O)CC/C=C/CN3C(=O)NC(=O)C3(C)C)CC2)ccc1F", "note": "[118a, (E)-5-(5,5-dimethyl-2,4-dioxoimidazolidin-1-yl)-N-(1-(4-fluoro-3-isobutoxyphenyl)cyclopropyl)pent-3-ene-1-sulfonamide]", "values": [{"measurement": "% relative inhibition vs. positive control", "value": 19, "unit": "%"}]}, {"smiles": "CC(C)COc1cc(C2(NS(=O)(=O)CCCCCN3C(=O)NC(=O)C3(C)C)CC2)ccc1F", "note": "[118b, 5-(5,5-dimethyl-2,4-dioxoimidazolidin-1-yl)-N-(1-(4-fluoro-3-isobutoxyphenyl)cyclopropyl)pentane-1-sulfonamide]", "values": [{"measurement": "% relative inhibition vs. positive control", "value": 19, "unit": "%"}]}, {"smiles": "CC1(C)C(=O)NC(=O)N1C/C=C/CCS(=O)(=O)NC1(c2ccc(F)c(OCC3CC3)c2)CC1", "note": "[119a, (E)-N-(1-(3-(cyclopropylmethoxy)-4-fluorophenyl)cyclopropyl)-5-(5,5-dimethyl-2,4-dioxoimidazolidin-1-yl)pent-3-ene-1-sulfonamide]", "values": [{"measurement": "% relative inhibition vs. positive control", "value": 10, "unit": "%"}]}, {"smiles": "CC1(C)C(=O)NC(=O)N1CCCCCS(=O)(=O)NC1(c2ccc(F)c(OCC3CC3)c2)CC1", "note": "[119b, N-(1-(3-(cyclopropylmethoxy)-4-fluorophenyl)cyclopropyl)-5-(5,5-dimethyl-2,4-dioxoimidazolidin-1-yl)pentane-1-sulfonamide]", "values": [{"measurement": "% relative inhibition vs. positive control", "value": 23, "unit": "%"}]}, {"smiles": "C[C@H]1C(=O)NC(=O)N1C/C=C/CCS(=O)(=O)NC1(c2cccc(OCC3CC3)c2)CC1", "note": "[123a, (S,E)-N-(1-(3-(cyclopropylmethoxy)phenyl)cyclopropyl)-5-(5-methyl-2,4-dioxoimidazolidin-1-yl)pent-3-ene-1-sulfonamide]", "values": [{"measurement": "% relative inhibition vs. positive control", "value": 105, "unit": "%"}]}, {"smiles": "C[C@H]1C(=O)NC(=O)N1CCCCCS(=O)(=O)NC1(c2cccc(OCC3CC3)c2)CC1", "note": "[123b, (S)—N-(1-(3-(cyclopropylmethoxy)phenyl)cyclopropyl)-5-(5-methyl-2,4-dioxoimidazolidin-1-yl)pentane-1-sulfonamide]", "values": [{"measurement": "% relative inhibition vs. positive control", "value": 102, "unit": "%"}]}, {"smiles": "C[C@@H](NS(=O)(=O)C/C=C/CCC1(C)NC(=O)NC1=O)c1ccc(F)c(OCC2CC2)c1", "note": "(stereo partly drawn) [127a, (E)-N—((R)-1-(3-(cyclopropylmethoxy)-4-fluorophenyl)ethyl)-5-(4-methyl-2,5-dioxoimidazolidin-4-yl) pent-2-ene-1-sulfonamide]", "values": [{"measurement": "% relative inhibition vs. positive control", "value": 37, "unit": "%"}]}, {"smiles": "C[C@@H](NS(=O)(=O)CCCCCC1(C)NC(=O)NC1=O)c1ccc(F)c(OCC2CC2)c1", "note": "(stereo partly drawn) [127b, N—((R)-1-(3-(cyclopropylmethoxy)-4-fluorophenyl)ethyl)-5-(4-methyl-2,5-dioxoimidazolidin-4-yl) pentane-1-sulfonamide]", "values": [{"measurement": "% relative inhibition vs. positive control", "value": 71, "unit": "%"}]}, {"smiles": "C[C@@H](NS(=O)(=O)CC/C=C/CN1C(=O)NC(=O)[C@@H]1C)c1ccc(F)c(OCC2CC2)c1", "note": "[Compound 107a, (E)-N—((R)-1-(3-(cyclopropylmethoxy)-4-fluorophenyl)ethyl)-5-((S)-5-methyl-2,4-dioxoimidazolidin-1-yl)pent-3-ene-1-sulfonamide]", "values": [{"measurement": "% relative inhibition vs. positive control", "value": 153, "unit": "%"}]}, {"smiles": "C[C@@H](NS(=O)(=O)CCCCCN1C(=O)NC(=O)[C@@H]1C)c1ccc(F)c(OCC2CC2)c1", "note": "[Compound 107b, N—((R)-1-(3-(cyclopropylmethoxy)-4-fluorophenyl)ethyl)-5-((S)-5-methyl-2,4-dioxoimidazolidin-1-yl)pentane-1-sulfonamide]", "values": [{"measurement": "% relative inhibition vs. positive control", "value": 154, "unit": "%"}]}, {"smiles": "CC(C)COc1cc([C@@H](C)NS(=O)(=O)CC/C=C/CN2C(=O)NC(=O)[C@H]2C)ccc1F", "note": "[Compound 108a, (E)-N—((R)-1-(4-fluoro-3-isobutoxyphenyl)ethyl)-5-((R)-5-methyl-2,4-dioxoimidazolidin-1-yl)pent-3-ene-1-sulfonamide]", "values": [{"measurement": "% relative inhibition vs. positive control", "value": 123, "unit": "%"}]}, {"smiles": "CC(C)COc1cc([C@@H](C)NS(=O)(=O)CCCCCN2C(=O)NC(=O)[C@H]2C)ccc1F", "note": "[Compound 108b, N—((R)-1-(4-fluoro-3-isobutoxyphenyl)ethyl)-5-((R)-5-methyl-2,4-dioxoimidazolidin-1-yl)pentane-1-sulfonamide]", "values": [{"measurement": "% relative inhibition vs. positive control", "value": 94, "unit": "%"}]}, {"smiles": "O=C1CN(C/C=C/CCCNS(=O)(=O)c2cccc(OCC3CC3)c2)C(=O)N1", "note": "[Example 79, (E)-3-(cyclopropylmethoxy)-N-(6-(2,4-dioxoimidazolidin-1-yl)hex-4-en-1-yl)benzenesulfonamide]", "values": [{"measurement": "% relative inhibition vs. positive control", "value": 139, "unit": "%"}]}, {"smiles": "O=C1CN(CCCCCCNS(=O)(=O)c2cccc(OCC3CC3)c2)C(=O)N1", "note": "[Example 80, 3-(cyclopropylmethoxy)-N-(6-(2,4-dioxoimidazolidin-1-yl)hexyl)benzenesulfonamide]", "values": [{"measurement": "% relative inhibition vs. positive control", "value": 151, "unit": "%"}]}, {"smiles": "CCOc1cc([C@@H](C)NS(=O)(=O)CCCCCN2CC(=O)NC2=O)ccc1F", "note": "[Example 82, (R)-5-(2,4-dioxoimidazolidin-1-yl)-N-(1-(3-ethoxy-4-fluorophenyl)ethyl)pentane-1-sulfonamide]", "values": [{"measurement": "IC50", "value": 3, "unit": "µM"}, {"measurement": "% relative inhibition vs. positive control", "value": 25, "unit": "%"}]}, {"smiles": "C[C@@H](NS(=O)(=O)CCCCCN1CC(=O)NC1=O)c1ccc(F)c(OC2CCC2)c1", "note": "[Example 83, (R)—N-(1-(3-cyclobutoxy-4-fluorophenyl)ethyl)-5-(2,4-dioxoimidazolidin-1-yl)pentane-1-sulfonamide]", "values": [{"measurement": "IC50", "value": 2, "unit": "µM"}, {"measurement": "% relative inhibition vs. positive control", "value": 37, "unit": "%"}]}, {"smiles": "C[C@@H](NS(=O)(=O)CCCOCN1CC(=O)NC1=O)c1cccc(OC2CCCC2)c1", "note": "[Example 84, (R)—N-(1-(3-(cyclopentyloxy)phenyl)ethyl)-3-((2,4-dioxoimidazolidin-1-yl)methoxy)propane-1-sulfonamide]", "values": [{"measurement": "IC50", "value": 2.5, "unit": "µM"}, {"measurement": "% relative inhibition vs. positive control", "value": 30, "unit": "%"}]}, {"smiles": "C[C@@H](NS(=O)(=O)CCCOCN1CC(=O)NC1=O)c1ccc(F)c(OC2CCCC2)c1", "note": "[Example 85, (R)—N-(1-(3-(cyclopentyloxy)-4-fluorophenyl)ethyl)-3-((2,4-dioxoimidazolidin-1-yl)methoxy)propane-1-sulfonamide]", "values": [{"measurement": "% relative inhibition vs. positive control", "value": 187, "unit": "%"}]}, {"smiles": "C[C@@H](NS(=O)(=O)CCCCCN1CC(=O)NC1=O)c1ccc(F)c(OC2CCCC2)c1", "note": "[Example 86, (R)—N-(1-(3-(cyclopentyloxy)-4-fluorophenyl)ethyl)-5-(2,4-dioxoimidazolidine-1-yl)pentane-1-sulfonamide]", "values": [{"measurement": "% relative inhibition vs. positive control", "value": 187, "unit": "%"}]}, {"smiles": "C[C@@H](NS(=O)(=O)CCCCCN1CC(=O)NC1=O)c1ccc(F)c(OCC2COC2)c1", "note": "[Example 87, (R)-5-(2,4-dioxoimidazolidin-1-yl)-N-(1-(4-fluoro-3-(oxetane-3-ylmethoxy)phenyl)ethyl)pentane-1-sulfonamide]", "values": [{"measurement": "IC50", "value": 2, "unit": "µM"}, {"measurement": "% relative inhibition vs. positive control", "value": 37, "unit": "%"}]}, {"smiles": "C[C@@H](NS(=O)(=O)CCCCCN1CC(=O)NC1=O)c1ccc(F)c(OCC2CCC2)c1", "note": "[Example 88, (R)—N-(1-(3-(cyclobutylmethoxy)-4-fluorophenyl)ethyl)-5-(2,4-dioxoimidazolidin-1-yl)pentane-1-sulfonamide]", "values": [{"measurement": "IC50", "value": 0.8, "unit": "µM"}, {"measurement": "% relative inhibition vs. positive control", "value": 93, "unit": "%"}]}, {"smiles": "C[C@@H](NS(=O)(=O)CCCCCN1CC(=O)NC1=O)c1cccc(OC2CCCC2)c1", "note": "[Example 89, (R)—N-(1-(3-(cyclopentyloxy)phenyl)ethyl)-5-(2,4-dioxoimidazolidin-1-yl)pentane-1-sulfonamide]", "values": [{"measurement": "IC50", "value": 0.8, "unit": "µM"}, {"measurement": "% relative inhibition vs. positive control", "value": 93, "unit": "%"}]}]}
